“And” between values parts separate entries of the source, which are not always exact repeats. Equal values may be shown once.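 Five compound concentrations were applied to cells in 96-well plates for 48 hours; endpoints were derived by simple linear interpolation of the resulting dose-response curve. GI50 marks 50% less growth. TGI is the concentration that stops growth completely.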
Legend:
Experiment in all cases: NCI tumour cell line growth inhibition, 48 h
SK-MEL-5 melanoma = system: SK-MEL-5 melanoma
SF-539 CNS = system: SF-539 CNS
K-562 leukemia = system: K-562 leukemia
SF-295 CNS = system: SF-295 CNS
NCI-H460 lung = system: NCI-H460 lung
HT29 colon = system: HT29 colon
MDA-MB-435 = system: MDA-MB-435
BT-549 breast = system: BT-549 breast

Structure (SMILES)	GI50 (SK-MEL-5 melanoma) [µM]	TGI (SK-MEL-5 melanoma)	GI50 (SF-539 CNS) [µM]	TGI (SF-539 CNS)	GI50 (K-562 leukemia) [µM]	TGI (K-562 leukemia)	GI50 (SF-295 CNS) [µM]	TGI (SF-295 CNS)	GI50 (NCI-H460 lung) [µM]	TGI (NCI-H460 lung)	GI50 (HT29 colon) [µM]	TGI (HT29 colon)	GI50 (MDA-MB-435) [µM]	TGI (MDA-MB-435) [µM]	GI50 (BT-549 breast) [µM]	TGI (BT-549 breast)
COc1ccc2c(c1)c(CC(=O)[Se]C)c(C)n2C(=O)c1ccc(Cl)cc1	> 0.434	> 0.608 µM	> 0.238	> 0.526 µM	> 0.583	> 1 µM	> 0.365	> 0.58 µM	> 0.304	> 1 µM	> 0.223	> 1 µM	> 0.231	> 0.503		
COc1ccc2c(CN3CCCC[C@H]3C(=O)O)cc3cc4c(cc3c2c1)OCO4	1.25	2.5 µM	4.54	16.2 µM	1.5	11.1 µM	0.622	3.53 µM	0.359	2.23 µM	0.374	1.85 µM	1.05	4.09	2.6	6.6 µM
CC(C)CCCC(C)[C@H]1CCC2[C@@H]3CCC4Cc5nc6c(nc5C[C@]4(C)C3CC[C@@]21C)CC1CC[C@@H]2C(CC[C@@]3(C)C2CC[C@@H]3C(C)CCCC(C)C)[C@@]1(C)C6 (stereo partly specified)		> 100 µM		> 100 µM		> 100 µM		> 100 µM		> 100 µM		> 100 µM		> 100		> 100 µM
COC(C(=O)NN)c1ccccc1 (stereo unspecified)		> 100 µM		> 100 µM		> 100 µM		> 100 µM		> 100 µM		> 100 µM		> 100		> 100 µM
C/C(O)=C(/C=N/C(=S)Nc1ccc(S(N)(=O)=O)cc1)C(=O)Nc1ccccc1C		> 100 µM		> 100 µM		> 100 µM		> 100 µM		> 100 µM		> 100 µM		> 100		> 100 µM
COc1cc2c(cc1OC)[C@H](C)N1CCc3cc(OC)c(OC)cc3[C@@H]1C2		> 100 µM		> 100 µM		> 100 µM		> 100 µM		> 100 µM		> 100 µM		> 100		> 100 µM
CC1=C(C(=O)Nc2ccc3n[nH]c(C)c3c2)C(c2ccc(C(F)(F)F)cc2)CC(=O)N1 (stereo unspecified)	> 17.7	> 25 µM	7.12	> 25 µM	> 25	> 25 µM	16.4	> 25 µM	16.5	> 25 µM	> 25	> 25 µM	> 21	> 25	6.96	> 25 µM
O=C1Nc2ccc(Br)cc2C1=Nc1cccnc1		31.8 µM		30 µM		52.7 µM		> 100 µM		> 100 µM		51.3 µM		28.9		33.2 µM
C#CC#CC#CC#CC#CC#CC#CC#CCC1OCC(COC(=O)O[C@@H](C(=O)O[C@H]2C[C@@]3(O)[C@@H](OC(=O)c4ccccc4)[C@@H]4[C@]5(OC(C)=O)CO[C@@H]5C[C@H](O)[C@@]4(C)C(=O)[C@H](OC(C)=O)C(=C2C)C3(C)C)[C@@H](NC(=O)c2ccccc2)c2ccccc2)O1 (stereo partly specified)	0.671	> 9.85 µM	0.156	1.97 µM	0.121	> 33.3 µM	0.581	> 11.6 µM	0.0426	> 33.3 µM	0.0387	> 33.3 µM	0.0167	0.0434	0.586	> 33.3 µM
COc1ccc(CCN2CC=Cn3c2nc2ccccc2c3=O)cc1	0.0265	0.154 µM	0.0209	0.0627 µM	0.0203	> 100 µM	0.0269	> 100 µM	0.0358	14.4 µM	0.0319	27.4 µM			0.0611	15.5 µM
COc1cc(OC)c2nc(C)c3c(c2c1)SCC3		49.8 µM		35.8 µM		> 100 µM		65.9 µM		54.3 µM		99.4 µM		58.3		
CC1CCC/C1=C(/I)C(=O)c1ccccc1 (stereo unspecified)		69.5 µM		> 100 µM		> 100 µM		> 100 µM		> 100 µM		> 100 µM		82		
CCCCOC(=O)N1CCN(/[N+]([O-])=N/Oc2ccc([N+](=O)[O-])cc2[N+](=O)[O-])CC1	4.91	19.8 µM	2.56	6.11 µM	5.97	> 100 µM	28.6	> 100 µM	4.94	> 100 µM	4.67	> 100 µM	4.6	16.4	4.87	17.7 µM
O=C(Nc1ccc(Br)cc1F)c1cc(I)ccc1O	1.48	2.98 µM	2.8	12.1 µM	2.52	> 100 µM	2.11	4.85 µM	3.15	> 100 µM	16.9	78.3 µM	3.04	10.1	2.26	6.43 µM
CC1=C(c2cccc(O)c2)[C@H](c2ccc(OCCN3CC(CF)C3)cc2)Oc2ccc(O)cc21	3.58	12.8 µM	5.78	18.3 µM	3.33	17.9 µM	4.27	16.5 µM	4.94	18.2 µM	3.52	12.8 µM	12	24.3	10.5	23.2 µM
CC1(C)C2CCC13C(=O)C1OC3(C2)C2C(=O)c3ccccc3C(=O)C12 (stereo unspecified)			> 100	> 100 µM	> 100	> 100 µM			> 100	> 100 µM	> 100	> 100 µM	> 100	> 100		
Cc1cc2c(C(C)C)c(O)c(O)cc2c(O)c1-c1c(C)cc2c(C(C)C)c(O)c(O)cc2c1O	12.6	26 µM	19.9	43.5 µM	5.72	27.7 µM	22.5	58 µM	11.8	40 µM	20.1	39.6 µM	14.5	31.3	14.4	41.2 µM

Structure (SMILES)	GI50 (SK-MEL-5 melanoma) [µM]	TGI (SK-MEL-5 melanoma)	GI50 (SF-539 CNS) [µM]	TGI (SF-539 CNS)	GI50 (K-562 leukemia) [µM]	TGI (K-562 leukemia)	GI50 (SF-295 CNS) [µM]	TGI (SF-295 CNS)	GI50 (NCI-H460 lung) [µM]	TGI (NCI-H460 lung)	GI50 (HT29 colon) [µM]	TGI (HT29 colon)	GI50 (MDA-MB-435) [µM]	TGI (MDA-MB-435) [µM]	GI50 (BT-549 breast) [µM]	TGI (BT-549 breast)
O=C(Nc1cccc(-n2cc(-c3ccncc3)c(-c3ccc(Cl)c(O)c3)n2)c1)Nc1cc(C(F)(F)F)cc(C(F)(F)F)c1	0.604	1.26 µM	0.777	1.53 µM	0.52	2.98 µM	0.618	1.65 µM	0.391	1.36 µM	0.711	1.64 µM	0.829	2.07	1.05	2.05 µM
Cc1cc(NCCCN(C)C)c2ccc3c(ccc4c(NCCCN(C)C)cc(C)nc43)c2n1	0.275	0.945 µM	0.193	0.487 µM	0.454	> 100 µM	0.205	0.745 µM	0.171	0.441 µM	0.149	0.503 µM	0.226	0.539	1.85	3.53 µM
C=C(C(N)=O)c1ccc([N+](=O)[O-])o1		16.4 µM		27.2 µM		26 µM		> 100 µM		59 µM		30.6 µM		7.65		
O=C(C/C(=N/O)C(=O)NC1=C(Cl)C(=O)c2ccccc2C1=O)CC(c1ccccc1)c1c(O)c2ccccc2oc1=O (stereo unspecified)		2.38 µM		31.7 µM		> 100 µM		22.8 µM		16 µM		44.3 µM		4.72		> 100 µM
NCCCC[C@@H]1NC(=O)[C@H]2CCCN2C(=O)[C@H](Cc2ccccc2)CNC(=O)[C@H](Cc2ccccc2)NC1=O	> 37.5	> 37.5 µM	> 37.5	> 37.5 µM	> 17.9	> 37.5 µM	> 37.5	> 37.5 µM	> 37.5	> 37.5 µM	> 37.5	> 37.5 µM	> 37.5	> 37.5	> 37.5	> 37.5 µM
CSC1=C(N)C(=O)c2[nH]cc(CO)c2C1=N	0.0451	0.164 µM	0.171	0.309 µM	0.221	0.534 µM	0.159	0.309 µM	0.154	0.338 µM	0.161	0.498 µM	0.0473	0.165	0.171	0.313 µM
O=C(/C=C/Sc1cc(C(F)(F)F)cc(C(F)(F)F)c1)c1ccc(Cl)cc1	17.4	32.9 µM	14.4	30.9 µM	2.92	24.6 µM	13.6	29.6 µM	16.6	36.6 µM	6.93	23.9 µM	4.22	15.3	11.5	23.8 µM
C=CCN=C(N/N=C/c1ccc([N+](=O)[O-])o1)NS(=O)(=O)c1cc(C(=O)Nc2ccc(Cl)cc2)c(Cl)cc1SC	2.14	4.82 µM	5.92	> 100 µM	2.41	> 21.2 µM	> 100	> 100 µM	2.22	> 35.2 µM	5.81	> 100 µM	2.88	7.05	5.05	> 79.7 µM
Cc1cc([N+](=O)[O-])c(NS(=O)(=O)c2cccc(C(=O)O)c2)cc1-c1cccnc1	> 100	> 100 µM	> 100	> 100 µM	> 100	> 100 µM	> 100	> 100 µM	> 100	> 100 µM	> 100	> 100 µM	> 100	> 100	> 100	> 100 µM
COc1ccc2c(c1)NC1=C(C(=O)OC1)C2c1cc(OC)c2c(c1)OCO2 (stereo unspecified)	0.021	0.0523 µM	< 0.0178	> 83.2 µM		> 100 µM	< 0.0155	> 100 µM	0.0274	> 100 µM	0.0314	> 100 µM	< 0.0123	0.0322	0.046	> 100 µM
O=C1c2cc3c(cc2[C@@H]2[C@H]1c1ccc([N+](=O)[O-])cc1C(=O)N2CCCBr)OCO3	< 0.01	0.0101 µM	< 0.01	< 0.01 µM	< 0.0121	0.444 µM	< 0.01				< 0.01	> 100 µM	< 0.01	0.219	< 0.01	0.411 µM
O=C1CCCCCCCCCCC1CN1CCCC1 (stereo unspecified)		31.6 µM		65.1 µM		> 100 µM		86.3 µM		> 100 µM		77.1 µM		> 100		> 100 µM
O=C1C(Nc2ccc(Cl)cc2)=C(I)C(=O)c2ncccc21	1.55	2.91 µM	1.63	3 µM	0.278	10.4 µM	6.79	19.6 µM					1.43	2.9	2	4.72 µM
C[C@H]1CC[C@@]2(NC1)O[C@H]1C[C@H]3[C@@H]4CC[C@H]5C[C@@H](O)CC[C@]5(C)[C@H]4CC[C@]3(C)[C@H]1[C@@H]2C	11.7	23.7 µM and > 100 µM	13.8	32.2 µM and > 100 µM	6.87	23 µM and > 100 µM	14.8	42.9 µM and > 100 µM	11.9	34.8 µM and > 100 µM	9.75	50 µM and > 100 µM	17.3	50	23.8	50 µM and > 100 µM
COc1cc(OC)c(C/C=C/c2ccccc2)cc1O		29.3 µM		29.7 µM		33 µM				31 µM		31.5 µM		30.7		29.6 µM
CC1(C)CC(O)C(C)(C)[C@@H](O)C1 (stereo partly specified)		> 100 µM		> 100 µM		> 100 µM		> 100 µM		> 100 µM		> 100 µM				> 100 µM
C[C@@H]1[C@H](C)N1CC(O)Cn1ccnc1[N+](=O)[O-] (stereo partly specified)		> 100 µM		> 100 µM		> 100 µM		> 100 µM		> 100 µM		> 100 µM		> 100		
